Laboratory results: patent US20210322422A1, “USE OF AKT INHIBITORS IN OPHTHALMOLOGY” (Hoffmann-La Roche Inc., priority 2018, published 2021)
“Also recorded” adds a separate entry of the source.

Legend:
Format in all cases: in vivo, mouse
Cryba1 cKO mice [1] = experiment: histological sections (H&E) of retina after intravitreal injection; details: 1 year old, versus vehicle
Method: (§1) Cryba1^fl/fl and Cryba1 cKO mice (Male, 12 months old; n=4) were anaesthetized by intraperitoneal injection of 0.15 ml of ketamine (2.5 mg/ml)+ xylazine (0.5 mg/ml) mixture. Topical anesthesia (proparacaine hydrochloride) was applied to the eye and pupils dilated with a drop of topical 2.5% phenylephrine hydrochloride ophthalmic solution. The eye was proptosed by slight depression of the lower lid with blunt curved forceps and washed with sterile saline. […] All instruments were sterilized with a steam autoclave. Bacitracin Ophthalmic ointment was applied postoperatively^6. Animals were euthanized with CO2 gas four weeks after the first injection and the retinas were harvested.
For hematoxylin and eosin (H&E) staining, eyes from NOD-SCID mice (n=10) were enucleated and fixed initially in 2.5% glutaraldehyde for 72 h, followed by 10% buffered formalin. The eyes were embedded in methyl-methacrylate, sectioned and stained as previously described″.

Cryba1 cKO mice [2] = experiment: ELISA of CXCL1 and IFNλ in RPE-choroid after intravitreal injection; details: versus age-matched vehicle and untreated
Method: The RPE choroid complexes harvested from freshly enucleated mouse eyes were kept on ice and then homogenized in 300 μL of complete extraction buffer (Abcam, USA) per 5 mg of tissue. The homogenized tissue was allowed to stay in constant agitation for 2 h at 4° C., centrifuged at 13,000 rpm at 4° C. for 20 min. The supernatants were aliquoted and stored at −80° C. and were subsequently used to perform ELISA to evaluate the levels of IFNλ, and CXCL1, as previously described^13.
as §1

Cryba1 cKO mice [3] = experiment: flow cytometry estimation of percentage neutrophils in retina after intravitreal injection; details: male, 12 months old, intravitreal 500 uM, once weekly for three weeks, versus vehicle or untreated
Method: Mouse retinas were dissected from enucleated eyes and digested with 0.05% collagenase D at 37° C. for 30 min, teased with blunt end forceps and pipetted to release cells, passed through a 70 μm cell strainer, centrifuged at 1,300 g, 4° C. for 20 minutes^10. The entire pellet was used for staining with the FITC-tagged cell surface markers CD45, V450-tagged Ly6G and Alexa fluor 700-tagged CD11b (BD Pharmigen™, USA) at a concentration of 1 μg/ml in PBS containing 1% BSA for 1 h. Cells were washed and analyzed on a flow cytometer (BD Aria III, FACS DIVA software, BD Biosciences, USA and FlowJo software-version 7.6.5), SSC-A/CD45+(FITC) cells were manually gated and among this population of cells; % Ly6G+ and % CD11b+Ly6G+ cells were quantified.
as §1, with “Animals were euthanized with CO2 gas four weeks after the first injection and the retinas were harvested.” left out

AKT2 (p-AKT2 S474) = experiment: immunoblot of AKT2 phosphorylation in retinas after intravitreal injection; details: 1-year-old Cryba1 cKO mice
Method: SDS-PAGE and western blot analyses were performed as previously described^12. The primary antibodies were used at a dilution of 1:1000 whereas, all secondary antibodies were used at a dilution of 1:3000.
as §1

NC1(Cc2ccc(Cl)cc2)CCN(c2ncnc3[nH]ccc23)CC1 [CCT128930]
retinal structure / early RPE abnormalities (H&E) (Cryba1 cKO mice [1]): exhibited normal structure; also recorded: reverses these early RPE abnormalities
CXCL1 levels in RPE-choroid (Cryba1 cKO mice [2]): reduced levels
IFNλ levels in RPE-choroid (Cryba1 cKO mice [2]): reduced levels
infiltrating neutrophils (% Ly6G+ and % CD11b+Ly6G+ cells) in retina (Cryba1 cKO mice [3]): decrease in infiltrating neutrophils; also recorded: significantly fewer neutrophils in the retinas
levels of total AKT in retina (AKT2 (p-AKT2 S474); immunoblot): levels of total AKT did not change
levels of pAKT2 (p-AKT2 S474) in retina (AKT2 (p-AKT2 S474); immunoblot densitometry, versus vehicle): significantly decreased the levels of pAKT2; also recorded: reduced
